Measured values as given in PMC11673756, “Urolithin A Protects Hepatocytes from Palmitic Acid-Induced ER Stress by Regulating Calcium Homeostasis in the MAM” (Biomolecules, 2024).

Molecular target: T1, CCDC47 (Coiled-Coil Domain Containing 47) (Homo sapiens, UniProt Q96A33)
T1 construct: endogenous CCDC47 in HepG2 cells
T1 sequence (Q96A33 21-483): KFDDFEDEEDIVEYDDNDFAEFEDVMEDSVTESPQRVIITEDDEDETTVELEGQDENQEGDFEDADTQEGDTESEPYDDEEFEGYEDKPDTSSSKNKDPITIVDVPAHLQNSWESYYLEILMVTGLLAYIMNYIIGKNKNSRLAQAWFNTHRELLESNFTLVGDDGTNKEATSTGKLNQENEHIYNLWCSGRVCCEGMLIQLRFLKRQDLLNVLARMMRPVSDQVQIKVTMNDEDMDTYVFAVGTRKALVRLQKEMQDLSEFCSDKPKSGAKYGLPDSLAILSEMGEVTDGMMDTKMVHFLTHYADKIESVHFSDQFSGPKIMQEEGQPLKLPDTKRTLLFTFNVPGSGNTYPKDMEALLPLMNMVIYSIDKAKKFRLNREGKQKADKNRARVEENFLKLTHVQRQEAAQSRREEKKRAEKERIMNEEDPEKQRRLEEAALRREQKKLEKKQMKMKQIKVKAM
Test: isothermal CETSA at […] °C
Assay type: cell-based

EC50: ~38 µM
Structure (SMILES): O=c1oc2cc(O)ccc2c2ccc(O)cc12 [UA, Urolithin A]
